Measurements taken from US20260034094A1, “COMPOSITIONS AND METHODS FOR INDUCING FERROPTOSIS” (Kojin Therapeutics, Inc., priority 2022, published 2026).
“And” between values parts separate entries of the source, which are not always exact repeats. Equal entries are not always repeated. Where two headings read alike, the source gives them in different places.

Tests used:
human recombinant GCL = human recombinant GCL (Homo sapiens (Human), UniProt P48506); test: GCL enzyme profiling assay (ADP-Glo luminescence); format: biochemical
Outline: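 ADP-Glo luminescence readout; 5 nM enzyme preincubated 1 h at 22 °C with 0.6 mM ATP, then started with 1 mM glutamate and 1.2 mM α-aminobutyrate, stopped after 2 h. Buffer: HEPES pH 7.5, MgCl2, DTT, BSA, 0.2% F-127, 1% DMSO. IC50 from four-parameter logistic fit.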

RKN cells = test: RKN cell profiling assay (cell viability, CellTiter-Glo); format: cell-based; details: read-out: Cell Killing EC50
Outline: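 Cells seeded at 1,000/well in F-12 with 10% FBS, left to adhere 24 h, then compound-treated for 96 h at 0.5% final DMSO. Viability by CellTiter-Glo luminescence; EC50 from four-parameter logistic fit. Ferroptosis rescue runs included 1.5 μM ferrostatin-1 added at seeding.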

[1] = human recombinant GCL, ADP-Glo, read-out: GCL IC50
[2] = human recombinant GCL 5 nM, 1 h preincubation with ATP, read-out: GCL IC50

human recombinant GCL, sequence (P48506 whole entry): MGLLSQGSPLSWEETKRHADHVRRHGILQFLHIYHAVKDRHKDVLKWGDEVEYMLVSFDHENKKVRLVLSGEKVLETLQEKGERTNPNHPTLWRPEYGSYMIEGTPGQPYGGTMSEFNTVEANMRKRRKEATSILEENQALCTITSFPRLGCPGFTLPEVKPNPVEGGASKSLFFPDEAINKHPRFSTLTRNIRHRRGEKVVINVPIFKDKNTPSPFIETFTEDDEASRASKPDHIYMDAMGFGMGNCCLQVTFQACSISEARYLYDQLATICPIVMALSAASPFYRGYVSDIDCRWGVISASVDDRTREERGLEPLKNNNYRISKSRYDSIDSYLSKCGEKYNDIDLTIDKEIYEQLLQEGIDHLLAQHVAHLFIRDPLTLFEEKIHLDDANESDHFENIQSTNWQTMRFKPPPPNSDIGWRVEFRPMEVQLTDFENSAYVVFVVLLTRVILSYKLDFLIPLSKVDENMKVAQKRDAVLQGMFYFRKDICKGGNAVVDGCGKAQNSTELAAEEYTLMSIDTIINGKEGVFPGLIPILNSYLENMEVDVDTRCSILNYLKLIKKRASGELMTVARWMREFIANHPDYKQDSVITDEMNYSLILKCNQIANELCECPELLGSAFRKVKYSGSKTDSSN

## N=S(=O)(C/C=C(\CC(F)(F)F)c1ccc(-c2ccc(Cl)cc2Cl)cc1)CC[C@H](N)C(=O)O (stereo partly drawn) [Compound 495, (2S)-2-amino-4-((E)-3-(2′, 4′-dichloro-[1, 1′-biphenyl]-4-yl)-5,5,5-trifluoropent-2-en-1-ylsulfonimidoyl) butanoic acid]
Human recombinant GCL; [1]
  IC50: 0.02 to 2 mM
RKN cells; cell viability
  EC50: ≥ 1000 µM

## CCOC(=O)[C@@H](N)CC[S@@](=N)(=O)CC[C@](O)(c1ccccc1)C(F)(F)F [Compound 488, ethyl (S)-2-amino-4-((R,3S)-4,4,4-trifluoro-3-hydroxy-3-phenylbutylsulfonimidoyl)butanoate]
Human recombinant GCL; [1]
  IC50: 0.02 to 2 mM
RKN cells; cell viability
  EC50: < 1000 µM

## Cc1ccc(C(F)(F)F)c(CCS(=N)(=O)CC[C@H](N)C(=O)O)c1 (some centres unmarked) [Compound 44]
Human recombinant GCL; [2]
  IC50: ≤ 0.02 mM
RKN cells; 96 h, 96 h exposure
  EC50: ≥ 1000 µM

## N=S(=O)(CCC(C(F)(F)F)C(F)(F)F)CC[C@H](N)C(=O)O (some centres unmarked) [Compound 186]
Human recombinant GCL; [2]
  IC50: ≤ 0.02 mM and 0.02 to 2 mM
Human recombinant GCL; human recombinant GCL 5 nM, 1 h preincubation with ATP, read-out: GCL IC50 (mM), individual values in parentheses
  IC50: 0.022 mM and 0.0183 mM
RKN cells; 96 h, 96 h exposure
  EC50: < 1000 µM

## N=S(=O)(CC[C@H](N)C(=O)O)CCC(O)(c1ccc(-c2ccccc2)cc1)C(F)(F)F (stereo partly drawn) [Compound 424, (2S)-4-(3-([1,1′-biphenyl]-4-yl)-4,4,4-trifluoro-3-hydroxybutylsulfonimidoyl)-2-aminobutanoic acid]
Human recombinant GCL; [1]
  IC50: ≤ 0.02 mM
RKN cells; cell viability
  EC50: < 1000 µM

## CCCCS(=N)(=O)CC[C@H](N)C(=O)NS(C)(=O)=O (stereo partly drawn) [Compound 104, (2S)-2-amino-4-(butylsulfonimidoyl)-N-(methylsulfonyl)butanamide]
Human recombinant GCL; [2]
  IC50: 0.02 to 2 mM
RKN cells; 96 h, 96 h exposure
  EC50: ≥ 1000 µM

## COC(=O)[C@@H](N)CCS(=N)(=O)CCCC1CC1 (stereo partly drawn) [Compound 71, (2S)-methyl 2-amino-4-(3-cyclopropylpropylsulfonimidoyl)butanoate]
Human recombinant GCL; [2]
  IC50: 0.02 to 2 mM
RKN cells; 96 h, 96 h exposure
  EC50: ≥ 1000 µM

## CC(C)(C)CCS(=N)(=O)CC[C@H](N)C(=O)NS(C)(=O)=O (some centres unmarked) [Compound 111]
Human recombinant GCL; [2]
  IC50: 0.02 to 2 mM
RKN cells; 96 h, 96 h exposure
  EC50: ≥ 1000 µM

## N=S(=O)(CC[C@H](N)C(=O)O)CCC1(O)CCC1 (some centres unmarked) [Compound 153]
Human recombinant GCL; [2]
  IC50: 0.02 to 2 mM
RKN cells; 96 h, 96 h exposure
  EC50: < 1000 µM

## N=S(=O)(CCCCc1ccccc1)CC[C@H](N)C(=O)O (some centres unmarked) [Compound 52]
Human recombinant GCL; [2]
  IC50: 0.02 to 2 mM
RKN cells; 96 h, 96 h exposure
  EC50: ≥ 1000 µM

## CCOC(=O)[C@@H](N)CC[S@@](=N)(=O)CC[C@@H](O)C(F)(F)F [Compound 486, ethyl (S)-2-amino-4-((R,3R)-4,4,4-trifluoro-3-hydroxybutylsulfonimidoyl)butanoate]
Human recombinant GCL; [1]
  IC50: 0.02 to 2 mM
RKN cells; cell viability
  EC50: < 1000 µM

## N=S(=O)(CCC(c1ccc(CCC(F)(F)F)cc1)C(F)(F)F)CC[C@H](N)C(=O)O (stereo partly drawn) [Compound 213, (2S)-2-amino-4-(4,4,4-trifluoro-3-(4-(3,3,3-trifluoropropyl)phenyl)butylsulfonimidoyl)butanoic acid]
Human recombinant GCL; [1]
  IC50: ≤ 0.02 mM
RKN cells; cell viability
  EC50: ≥ 1000 µM

## N=S(=O)(CC[C@H](N)C(=O)O)CCC(O)(c1ncc2ccccc2n1)C(F)(F)F (some centres unmarked) [Compound 374]
Human recombinant GCL; [1]
  IC50: 0.02 to 2 mM
RKN cells; cell viability
  EC50: < 1000 µM

## N=S(=O)(CC[C@H](N)C(=O)O)CCC(O)(c1ccc(-c2ccc(F)cc2F)cn1)C(F)(F)F (some centres unmarked) [Compound 477]
Human recombinant GCL; [1]
  IC50: ≤ 0.02 mM
RKN cells; cell viability
  EC50: < 1000 µM

## N=S(=O)(CC[C@H](N)C(=O)O)Cc1ccccc1C(=O)O (some centres unmarked) [Compound 168]
Human recombinant GCL; [2]
  IC50: 0.02 to 2 mM
RKN cells; 96 h, 96 h exposure
  EC50: ≥ 1000 µM

## CC(C)(C)CCS(=N)(=O)CC[C@H](N)C(=O)NC1CC1 (some centres unmarked) [Compound 113]
Human recombinant GCL; [2]
  IC50: 0.02 to 2 mM
RKN cells; 96 h, 96 h exposure
  EC50: < 1000 µM

## N=S(=O)(CCOCC(F)(F)F)CC[C@H](N)C(=O)O (some centres unmarked) [Compound 175]
Human recombinant GCL; [2]
  IC50: 0.02 to 2 mM
RKN cells; 96 h, 96 h exposure
  EC50: ≥ 1000 µM

## COC(=O)[C@@H](N)CCS(=N)(=O)CCc1cnccn1 (stereo partly drawn) [Compound 67, (2S)-methyl 2-amino-4-(2-(pyrazin-2-yl)ethylsulfonimidoyl)butanoate]
Human recombinant GCL; [2]
  IC50: > 2 mM
RKN cells; 96 h, 96 h exposure
  EC50: ≥ 1000 µM

## Cc1noc(C)c1-c1ccc(C(O)(CCS(=N)(=O)CC[C@H](N)C(=O)O)C(F)(F)F)cc1 (some centres unmarked) [Compound 448]
Human recombinant GCL; [1]
  IC50: ≤ 0.02 mM
RKN cells; cell viability
  EC50: ≥ 1000 µM

## CC(C)(C)CCS(=N)(=O)CC[C@H](N)C(=O)NCC(F)(F)F (some centres unmarked) [Compound 114]
Human recombinant GCL; [2]
  IC50: > 2 mM
RKN cells; 96 h, 96 h exposure
  EC50: < 1000 µM

## N=S(=O)(CC[C@H](N)C(=O)O)Cc1ccccc1 (some centres unmarked) [Compound 140]
Human recombinant GCL; [2]
  IC50: > 2 mM
RKN cells; 96 h, 96 h exposure
  EC50: ≥ 1000 µM

## N=[S@@](=O)(CC[C@H](N)C(=O)O)CC[C@@H](c1ccccc1)C(F)(F)F [Compound 61]
Human recombinant GCL; [2]
  IC50: ≤ 0.02 mM
RKN cells; 96 h, 96 h exposure
  EC50: < 1000 µM

## CCCCOC(=O)[C@@H](N)CCS(=N)(=O)CCc1ccccc1Cl (some centres unmarked) [Compound 91]
Human recombinant GCL; [2]
  IC50: 0.02 to 2 mM
RKN cells; 96 h, 96 h exposure
  EC50: < 1000 µM

## N=S(=O)(CC[C@H](N)C(=O)O)CCC(O)(c1ccc(C2CC2)cn1)C(F)(F)F (some centres unmarked) [Compound 475]
Human recombinant GCL; [1]
  IC50: 0.02 to 2 mM
RKN cells; cell viability
  EC50: ≥ 1000 µM

## CC(C)(CCS(=N)(=O)CC[C@H](N)C(=O)O)c1ccc(F)cc1 (some centres unmarked) [Compound 58]
Human recombinant GCL; [2]
  IC50: 0.02 to 2 mM
RKN cells; 96 h, 96 h exposure
  EC50: ≥ 1000 µM

## CCCCOC(=O)[C@@H](N)CCS(=N)(=O)CCC(C)C (some centres unmarked) [Compound 95]
Human recombinant GCL; [2]
  IC50: 0.02 to 2 mM
RKN cells; 96 h, 96 h exposure
  EC50: < 1000 µM

## N=S(=O)(CCC(c1ccc(-c2cc(Cl)cc(Cl)c2)cc1)C(F)(F)F)CC[C@H](N)C(=O)O (some centres unmarked) [Compound 234]
Human recombinant GCL; [1]
  IC50: ≤ 0.02 mM
RKN cells; cell viability
  EC50: ≥ 1000 µM

## N=S(=O)(CC[C@H](N)C(=O)O)CCC(O)(c1cc(-c2ccccc2)sn1)C(F)(F)F (some centres unmarked) [Compound 376]
Human recombinant GCL; [1]
  IC50: ≤ 0.02 mM
RKN cells; cell viability
  EC50: < 1000 µM

## N=S(=O)(CC[C@H](N)C(=O)O)CCC(O)(c1ccc(OC(F)(F)F)cc1)C(F)(F)F (stereo partly drawn) [Compound 330, (2S)-2-amino-4-(4,4,4-trifluoro-3-hydroxy-3-(4-(trifluoromethoxy)phenyl)butylsulfonimidoyl)butanoic acid]
Human recombinant GCL; [1]
  IC50: ≤ 0.02 mM
RKN cells; cell viability
  EC50: ≥ 1000 µM

## CC#CCS(=N)(=O)CC[C@H](N)C(=O)O (some centres unmarked) [Compound 144]
Human recombinant GCL; [2]
  IC50: 0.02 to 2 mM
RKN cells; 96 h, 96 h exposure
  EC50: ≥ 1000 µM

## CC(C)(C)CCS(=N)(=O)CC[C@H](N)C(=O)Nc1ccccn1 (some centres unmarked) [Compound 128]
Human recombinant GCL; [2]
  IC50: 0.02 to 2 mM
RKN cells; 96 h, 96 h exposure
  EC50: < 1000 µM

## N=S(=O)(CC[C@H](N)C(=O)O)CCC(O)(c1ccsn1)C(F)(F)F (some centres unmarked) [Compound 370]
Human recombinant GCL; [1]
  IC50: ≤ 0.02 mM
RKN cells; cell viability
  EC50: < 1000 µM

## N=S(=O)(CC[C@H](N)C(=O)O)CCC(O)(c1ccc(-c2ccc(OC(F)(F)F)cc2O)cc1)C(F)(F)F (some centres unmarked) [Compound 458]
Human recombinant GCL; [1]
  IC50: ≤ 0.02 mM
RKN cells; cell viability
  EC50: < 1000 µM

## CC(C)(C)CCS(=N)(=O)CC[C@H](N)C(=O)Nc1ccccc1 (some centres unmarked) [Compound 118]
Human recombinant GCL; [2]
  IC50: > 2 mM
RKN cells; 96 h, 96 h exposure
  EC50: < 1000 µM

## CCCCOC(=O)[C@@H](N)CC[S@@](=N)(=O)CCCC(F)(F)F [Compound 90]
Human recombinant GCL; [2]
  IC50: 0.02 to 2 mM
RKN cells; 96 h, 96 h exposure
  EC50: < 1000 µM

## CCCCS(=N)(=O)CC[C@H](N)C(=O)NS(=O)(=O)C(F)(F)F (some centres unmarked) [Compound 108]
Human recombinant GCL; [2]
  IC50: > 2 mM
RKN cells; 96 h, 96 h exposure
  EC50: ≥ 1000 µM

## N=S(=O)(CC[C@H](N)C(=O)O)CCC(O)(c1ccc(-c2ccc(Cl)cc2Cl)cn1)C(F)(F)F (single isomer, unassigned) [Compound 464]
Human recombinant GCL; [1]
  IC50: 0.02 to 2 mM
RKN cells; cell viability
  EC50: ≥ 1000 µM

## N=S(=O)(CC[C@H](N)C(=O)O)CC[C@H](O)c1ccccc1 (some centres unmarked) [Compound 54]
Human recombinant GCL; [2]
  IC50: 0.02 to 2 mM
RKN cells; 96 h, 96 h exposure
  EC50: ≥ 1000 µM

## N=S(=O)(CC[C@H](N)C(=O)O)CCC1(c2ccccn2)CCC1 (stereo partly drawn) [Compound 387, (2S)-2-amino-4-(2-(1-(pyridin-2-yl)cyclobutyl)ethylsulfonimidoyl)butanoic acid]
Human recombinant GCL; [1]
  IC50: 0.02 to 2 mM
RKN cells; cell viability
  EC50: < 1000 µM

## N#CC1(CCS(=N)(=O)CC[C@H](N)C(=O)O)CC1 (some centres unmarked) [Compound 151]
Human recombinant GCL; [2]
  IC50: 0.02 to 2 mM
RKN cells; 96 h, 96 h exposure
  EC50: ≥ 1000 µM

## CC(CCS(=N)(=O)CC[C@H](N)C(=O)O)(c1ccccc1)C(F)(F)F (some centres unmarked) [Compound 293]
Human recombinant GCL; [1]
  IC50: ≤ 0.02 mM
RKN cells; cell viability
  EC50: ≥ 1000 µM
